{"source": "patent US20050106226A1", "about": "“Pretreatment method and system for enhancing transdermal drug delivery” (priority 2003, published 2005)", "key": {"[1]": {"assay": "Passive transdermal delivery of PPS from hydrogel gel patch after microprojection array pretreatment, determined by urinary excretion of tritium", "type": "in vivo, hairless guinea pig", "settings": "passive diffusion", "procedure": "In this experiment, PPS was delivered by passive diffusion through skin pathways created by a pretreatment device having a microprojection array. The microprojection array comprised a stainless steel sheet having a thickness of 0.025 mm, trapezoidally shaped microprojections bent at an angle of approximately 90° to the plane of the sheet and a microprojection density of 241 microprojections/cm^2. […] The gel patch comprised a foam, double adhesive ring (diameter 3.8 cm, thickness 0.16 cm) having 0.35 mL of a hydrogel formulation and a skin contact area of 2 cm^2. The hydrogel formulation included tritiated PPS at 50 mg/mL in a 2% hydroxyethyl cellulose ([…], HERCULES Int. Lim. Netherlands, determined molecular weight: Mw 1890000, Mn 1050000) hydrogel. […] The amount of the biologically active agent (or drug) that penetrated the skin during selected time intervals was determined by measuring urinary excretion of tritium (previous studies had shown that in HGP's 32% of 3H-PPS injected intravenously is excreted in urine). […] After 24 h delivery, more than 6 mg of PPS had been administered systemically."}, "[2]": {"settings": "injected intravenously, HGP; cited from earlier work"}}}
{"substance": "pentosan polysulfate [PPS]", "values": [{"measurement": "amount of PPS administered systemically", "setting": "[1]; after 24 h delivery, tritiated PPS 50 mg/mL in 2% HEC hydrogel, 0.35 mL, 2 cm^2", "result": "more than 6 mg"}, {"measurement": "flux of PPS through the skin", "setting": "[1]; FIG. 19", "result": "time dependant flux"}, {"measurement": "fraction of 3H-PPS excreted in urine", "setting": "[2]", "result": 32, "unit": "%"}]}
